Test results as given in publication PMC3441706 (PLoS ONE, 2012).

Experiments:
all cell lines tested = assay: β-galactosidase staining (cellular senescence); format: cell-based; conditions: data not shown
pChk1 (Ser296) = assay: Western Blot for pChk1 (Ser296) in HCT116 cells; format: cell-based, human; conditions: HCT116, 150 nM, 0–48 hours
Description: Treated cells were directly lysed in NP40 cell lysis buffer (Invitrogen, Grand Island, NY, USA) containing protease and phosphatase inhibitors. Protein concentrations were measured colorimetrically (DC Protein Assay, Bio-Rad Laboratories, Hercules, CA, USA). Proteins were separated by SDS - polyacrylamide gel electrophoresis and blotted onto nitrocellulose membranes (Whatman™, Vienna, AUT). Equal loading was checked by Ponceau S (SERVA, Heidelberg, GER) staining. Bound antigen was visualized with the enhanced chemiluminescence detection system (Roche Diagnostics, Indianapolis, IN, USA). These procedures were performed according to the manufacturer’s protocols. Antibodies specific for the following proteins of interest were used: pChk1 (Ser296), p-p53 (Ser15), β-Tubulin and GAPDH were obtained from Cell Signaling Technology (Danvers, MA, USA) at 1∶1000 dilution. Secondary antibodies were peroxidase-tagged goat anti-rabbit or anti-mouse IgGs (Cell Signaling Technology) (1∶2000).

Raji = assay: Cytotoxicity assay (cell counting); format: cell-based; conditions: Homo sapiens, Burkitt lymphoma, 72 hours incubation
Description: (§1) Cells were plated in 24-well plates. After cells were allowed to recover for 24 hours, NVX-412 was added in fresh growth medium. The maximal DMSO concentration reached in all experiments was below 0.01%. Respective control experiments at the highest DMSO concentration were performed in order to rule out DMSO-induced effects. After 72 hours incubation the proportion of viable cells was determined by cell counting with a Z1 Coulter Particle Counter (Beckman Coulter, Vienna, AUT), a ViCell XR (Beckman Coulter, Vienna, AUT) or a CASY® Cell Counter (Schärfe, Reutlingen, Germany). Cytotoxicity was expressed as IC50 values that were derived from the corresponding dose–response curves.

Ramos = assay: Cytotoxicity assay (cell counting); format: cell-based; conditions: Homo sapiens, Burkitt Lymphoma, 72 hours incubation
Description: as §1

GL-1 = assay: Cytotoxicity assay (cell counting); format: cell-based; conditions: Canis lupus familiaris; GL-1, canine B-cell leukemia; 72 hours incubation
Description: as §1

HCT116 cells [1] = assay: Morphology assay / quantification of cell sizes; format: cell-based, human; conditions: HCT116, 48 hours treatment, 0.15 and 1 µM
Description: (§2) To investigate potential morphological changes upon treatment with NVX-412, HCT116, HeLa and HT-29 cells were plated in 6-well plates and incubated for up to 72 hours with the indicated concentrations of NVX-412, DMSO as vehicle control and 1 µM Camptothecin (CPT) as a positive control for apoptotic morphology. Control experiments were carried out to ensure that morphological changes are not due to differences in confluency. After 24, 48 and 72 hours pictures were taken with an Olympus IX71 inverted microscope and camera system (Olympus Color View III) at 20× magnification.
(§3) Cell sizes were quantified using specialized imaging software (ImageJ 1.45d, US NIH, Bethesda, MD, USA). Average areas of all cells present within 5 different fields of view per sample were determined after 48 hours treatment with 0, 0.15 and 1 µM NVX-412.

HeLa cells [2] = assay: Morphology assay / quantification of cell sizes; format: cell-based, human; conditions: 48 hours treatment
Description: as §2, §3

HT-29 cells [3] = assay: Morphology assay / quantification of cell sizes; format: cell-based, human; conditions: HT-29, 48 hours treatment
Description: as §2, §3

HCT116 cells [4] = assay: Flow cytometric cell cycle analysis; format: cell-based, human; conditions: HCT116, 24 hours, IC50 concentration, 0.5 and 1 µM
Description: (§4) HT-29, HeLa and HCT116 cells were plated in 6-well plates. […] CPT was used at 50 nM and 1 µM. To analyze the cell cycle distribution, cells were collected after 24 hours of incubation and washed with PBS. Cells were fixed in 70% ethanol for at least 2 hours. For analysis, cells were transferred into PBS, incubated with RNAse A (0.04 µg/ml final concentration) for 30 minutes at 37°C, treated with […] propidium iodide for 30 min at 4°C and then analyzed by flow cytometry using BD FACScan (Becton, Dickinson and Company, Franklin Lakes, NJ, USA). The resulting DNA histograms were quantified using ModFit LT (Verity Software House, Topsham, ME, USA).

HeLa cells [5] = assay: Flow cytometric cell cycle analysis; format: cell-based, human; conditions: 24 hours, IC50 concentration, 0.5 and 1 µM
Description: as §4

HT-29 cells [6] = assay: Flow cytometric cell cycle analysis; format: cell-based, human; conditions: HT-29, 24 hours, IC50 concentration, 0.5 and 1 µM
Description: as §4

In the case of `O=C(NNc1nc2cc(F)ccc2n2cccc12)c1cnccn1` [NVX-412, Pyrazine-2-carboxylic acid N’- (7-fluoro-pyrrolo[1,2-α]quinoxalin-4-yl)-hydrazide-oxalic acid co-crystal], the “β-galactosidase staining (senescence)” value (all cell lines tested) is reported as “negative in all cell lines tested”, the “Chk1 Ser296 phosphorylation” value (pChk1 (Ser296)) is reported as “increased after 4 hours” and the IC50 (Raji) is reported as 60 nM. The IC50 (Ramos) was 170 nM, the IC50 (GL-1) was 105 nM and the Cell sizes (HCT116 cells [1]) was “highly significant increase in cell sizes”. For the same compound, the Cell sizes (HeLa cells [2]) was “highly significant increase in cell sizes”, the Cell sizes (HT-29 cells [3]) was “highly significant increase in cell sizes” and the Cell cycle distribution (HCT116 cells [4]) was “dose-dependent increase in the fraction of S-phase cells”. The Cell cycle distribution (HeLa cells [5]) was “dose-dependent increase in the fraction of S-phase cells” and the Cell cycle distribution (HT-29 cells [6]) was “dose-dependent increase in the fraction of S-phase cells”.
